Reference: PMC7525318, “Identification of Six Flavonoids as Novel Cellular Antioxidants and Their Structure-Activity Relationship” (Oxidative Medicine and Cellular Longevity, 2020)
Read-outs that look alike come from different tables or passages of the source. Blank lines part the entries; values can stand above or below the molecule they belong to.

Experiments:
[1] = DPPH radical scavenging activity; conditions: 0.1 mM DPPH in methanol, 37°C, 30 min
Protocol: This assay was conducted as previously described by Wen et al. with some modifications. DPPH was freshly prepared in methanol at a concentration of 0.1 mM. The solution (20 μL) containing the tested compounds with different concentrations was added into the DPPH solution (180 μL) in the 96-well plates. […] The IC50 value was calculated on the scavenging activity against DPPH radical.

[2] = Oxygen radical antioxidant capacity (ORAC) assay; conditions: Trolox equivalents; AAPH, fluorescein
Protocol: The ORAC assay was evaluated as previously described by Cao et al. with some modifications. 50 μL of samples or Trolox with different concentrations and the fluorescein solution was added to a 96-well microplate, which was incubated at 37°C for 10 min. […] The ORAC values were calculated by the regression equation between the Trolox concentration and the net area under the curve (expressed as μmol Trolox eq/μmol sample).

[3] = tested on: HepG2 cells; test: Cellular antioxidant activity (CAA) assay; assay type: cell-based; conditions: DCFH-DA 25 μM, ABAP 600 μM
Protocol: The CAA assay was tested as described previously. 6 × 10^4 cells/well of HepG2 cells were seeded at a 96-well microplate with 100 μL of growth medium/well. […] Then, the cells were washed with PBS and treated with 100 μL of 600 μM ABAP (dissolved in HBSS), and the 96-well microplate was immediately placed into an Infinite SpectraMax i3x Multi-Mode Detection plate-reader at 37°C. […]

[4] = tested on: catalase (CAT); test: Intracellular CAT activity in ABAP-treated HepG2 cells; assay type: cell-based; conditions: for CAT activity of PC value: then ABAP, % of PC value; for increase of CAT activity: HepG2, pretreatment before ABAP
Protocol: (§1) HepG2 cells were seeded (1 × 10^6 cells/well) in six-well plates. After incubation for 24 h, the cells were pretreated with different concentration samples. Medium was washed by PBS and treated with 600 μM ABAP. The cells were collected and treated with cell lysis buffer (20 mM Tris at pH 7.5, 150 mM NaCl and 1% Triton X-100) at 4°C. The lysed cells were used to measure the intracellular activities of SOD, CAT, and GSH-Px by kits according to the manufacturer instructions (Wen 2015). Cells without sample and ABAP treatment were used as positive control (PC), while cells treated with ABAP but not sample were used as negative control (NC).

[5] = tested on: HepG2 cells; test: Cytotoxicity assay (CCK-8); assay type: cell-based; conditions: range of 10-160 μM
Protocol: (§2) The cytotoxicity and antiproliferative activity assays were performed by using the CCK-8 assay kit. Briefly, HepG2 cells were cultured at a density of 4 × 10^4 cells/well or 2.5 × 10^4 cells/well in a 96-well microplate with growth medium. After incubation at 37°C, the growth medium is treated with 100 μL of growth medium containing different concentrations of tested compounds for 24 h or 72 h. The wells having growth medium without the tested compound served as control. Then, the cells were incubated with 10 μL/well CCK-8 solutions for 2 h at 37°C. The absorbance values of each well were measured at 450 nm using a microplate reader (SpectraMax i3x, ForteBio Analytics Co., Ltd., USA). The cytotoxic activity and antiproliferative effects of the tested compound was calculated as(1) Cytotoxicity %=1−As/Ac×100%, (2) Cell proliferation %=As/Ac×100%, where As is the absorbance of the well with compound; Ac is the absorbance of control.

[6] = tested on: superoxide dismutase (SOD); test: Intracellular SOD activity in ABAP-treated HepG2 cells; assay type: cell-based; conditions: then ABAP
Protocol: as §1

[7] = tested on: HepG2 cells; test: Antiproliferative activity assay (CCK-8); assay type: cell-based
Protocol: as §2

[8] = tested on: glutathione peroxidase (GSH-Px); test: Intracellular GSH-Px activity in ABAP-treated HepG2 cells; assay type: cell-based; conditions: for GSH-Px activity of PC value: then ABAP, % of PC value; for increase of GSH-Px activity: HepG2, pretreatment before ABAP
Protocol: as §1

[9] = HepG2, pretreated at a higher concentration

IC50 [1]: > 200 µM | EC50 ([3]; Homo sapiens): 19.5 ± 1.48 µM | IC50 ([7]; Homo sapiens): 90.7 ± 2.45 µM
Molecule: COc1c(-c2ccc(O)c(O)c2)oc2cc(O)cc(O)c2c1=O [compound 5, 3-O-methylquercetin]
ORAC values [2]: 4.71 ± 0.12 μmol TE/μmol | CAT activity of PC value ([4]; HepG2, pretreated with 15 μM): 49.55 ± 3.21% | CAT activity of PC value ([4]; HepG2, pretreated with 30 μM): 69.34 ± 5.15% | CAT activity of PC value ([4]; HepG2, pretreated with 45 μM): 80.67 ± 7.13% | increase of CAT activity [4]: dose-dependent manner | cytotoxicity [5]: no significant effects | SOD activity compared to NC cells [6, 9]: significant increase | SOD activity compared to NC cells ([6]; HepG2, pretreated with 15 μM): insignificant increase | cytotoxicity revealed by the cell proliferative assay [7]: slightly cytotoxicity | cytotoxicity revealed by the cell proliferative assay ([7]; listed as 3-O-methylquercetin): low cytotoxicity | GSH-Px activity of PC value ([8]; HepG2, pretreated with 15 μM): 59.74 ± 3.23% | GSH-Px activity of PC value ([8]; HepG2, pretreated with 30 μM): 69.08 ± 4.27% | GSH-Px activity of PC value ([8]; HepG2, pretreated with 45 μM): 83.44 ± 4.18% | increase of GSH-Px activity [8]: dose-dependent manner

Molecule: Rhamnetin [compound 2]
IC50 [1]: 34 ± 0.61 µM | ORAC values [2]: 4.72 ± 0.02 μmol TE/μmol | EC50 [3]: 10.8 ± 0.34 µM | CAT activity of PC value ([4]; HepG2, pretreated with 5 μM): 56.58 ± 3.25% | CAT activity of PC value ([4]; HepG2, pretreated with 10 μM): 74.98 ± 4.25% | CAT activity of PC value ([4]; HepG2, pretreated with 15 μM): 83.10 ± 4.54% | increase of CAT activity [4]: dose-dependent manner | cytotoxicity [5]: no significant effects | SOD activity compared to NC cells [6, 9]: significant increase | SOD activity compared to NC cells ([6]; HepG2, pretreated with 5 μM): insignificant increase | GSH-Px activity of PC value ([8]; HepG2, pretreated with 5 μM): 65.09 ± 3.21% | GSH-Px activity of PC value ([8]; HepG2, pretreated with 10 μM): 71.88 ± 4.23% | GSH-Px activity of PC value ([8]; HepG2, pretreated with 15 μM): 81.24 ± 5.65% | increase of GSH-Px activity [8]: dose-dependent manner
